Partition coefficient data for 3 compounds are collected here from US9334257B2, “Methods of purifying and identifying the presence of and levels of procyanidin oligomeric compounds” (The Hershey Company, priority 2012, dated 2016).

The data set in a line: Partition coefficient of cocoa procyanidin oligomers in the CPC biphasic solvent system. The data set is classed as physicochemical. To be noted: typical CPC runs as described; biphasic ethyl acetate:ethanol:water (6:1:5), ascending mode; unfermented cocoa bean sample of 8.5 grams. On the procedure: A sample is mixed with water and prepared for FCPC with a KROMATON device and rotor. Columns are prepared with biphasic solvent mixture of ethyl acetate:ethanol:water at 6:1:5 ratio. The solvent used can be modified from this ratio by calculating the partition coefficients and comparing to that of the ethyl acetate:ethanol:water example. The FCPC is run in ascending mode for purifying procyanidins, so that the mobile phase is the upper phase in the resting columns.
These quantities are isolated from an unfermented cocoa bean sample of 8.5 grams. In comparison, with a diol HPLC column, 150×30 mm, injecting about 270 mg of the same sample per run yields only about 25 mg of DP2-4 and less than 1 mg of DP11-12. Clearly, the CPC methods of the invention provide commercially viable methods for producing usable quantities of a range of procyanidin oligomers, especially from cocoa sources.
Take `Oc1cc(O)c2c(c1)O[C@H](c1ccc(O)c(O)c1)[C@H](O)[C@H]2c1c(O)cc(O)c2c1O[C@H](c1ccc(O)c(O)c1)[C@H](O)C2` [procyanidin B2]: the Partition coefficient is on record as 0.63.
Turning to `Oc1cc(O)c2c(c1)O[C@H](c1ccc(O)c(O)c1)[C@H](O)[C@H]2c1c(O)cc2c(c1O)C[C@@H](O)[C@@H](c1ccc(O)c(O)c1)O2` [procyanidin B5], the Partition coefficient turned out to be 0.94.
`Oc1cc(O)c2c(c1)O[C@H](c1ccc(O)c(O)c1)[C@H](O)C2` [epicatechin]: the Partition coefficient amounted to 0.84.
